Laboratory results reported in ChEMBL document CHEMBL4304800, “C4-Phenylthio β-lactams: Effect of the chirality of the β-lactam ring on antimicrobial activity” (2019).
In brackets after ≈: the same amount, converted by molar mass. Activity calls are given as the source filed them. The rule behind the calls is not given here.

Legend:
[1] = system: Mycobacterium tuberculosis; experiment: (§1) Bactericidal activity against serine beta-lactamase producing Mycobacterium tuberculosis H37Rv assessed as induction of microbial kill at MIC preincubated in middlebrook 7H9 medium for 7 days and further incubated in middlebrook 7H11/BSA supplemented with OADC for 3 weeks by serial dilution based colony counting method; type: functional
[2] = system: Mycobacterium tuberculosis; experiment: Antitubercular activity against serine beta-lactamase producing Mycobacterium tuberculosis H37Rv after 14 days in presence of middlebrook 7H9/BSA medium by eleven fold serial dilution method; type: functional; details: 336 h
[3] = system: Mycobacterium tuberculosis; experiment: as §1, with “reduction in” for “induction of”, “cell number” for “kill”; type: functional, organism-based
[4] = system: Moraxella catarrhalis; experiment: Bactericidal activity against serine beta-lactamase producing Moraxella catarrhalis incubated in MH broth for 24 to 48 hrs by microbroth dilution method; type: functional
[5] = system: Mycobacterium tuberculosis; experiment: Bactericidal activity against non-replicating persistant form of Mycobacterium tuberculosis H37Rv assessed as minimum anaerobicidal concentration by measuring log reduction in viable microbe number at 200 ug/ml preincubated for 7 days in anaerobic condition post adaptation to decreasing oxygen levels and further incubated in middlebrook 7H11/BSA supplemented with ODAC for 4 to 5 weeks by serial dilution based assay; type: functional
[6] = system: Mycobacterium tuberculosis; experiment: Antitubercular activity against serine beta-lactamase producing Mycobacterium tuberculosis H37Rv after 14 days in presence of DPPC/BSA medium by eleven fold serial dilution method; type: functional; details: 336 h
[7] = system: Mycobacterium tuberculosis; experiment: Antitubercular activity against serine beta-lactamase producing Mycobacterium tuberculosis H37Rv after 14 days in presence of Chol/BSA medium by eleven fold serial dilution method; type: functional; details: 336 h
[8] = system: Mycobacterium tuberculosis; experiment: Antitubercular activity against serine beta-lactamase producing Mycobacterium tuberculosis H37Rv after 14 days in presence of DPCC/Cas medium by eleven fold serial dilution method; type: functional; details: 336 h
[9] = system: Mycobacterium tuberculosis; experiment: Antitubercular activity against serine beta-lactamase producing Mycobacterium tuberculosis H37Rv after 14 days in presence of Glu/Cas medium by eleven fold serial dilution method; type: functional; details: 336 h
[10] = system: Mycobacterium tuberculosis; experiment: Antitubercular activity against serine beta-lactamase producing Mycobacterium tuberculosis H37Rv after 14 days in presence of Glu/BSA medium by eleven fold serial dilution method; type: functional; details: 336 h
[11] = system: Mycobacterium tuberculosis; experiment: Antitubercular activity against clinical drug sensitive Mycobacterium tuberculosis K14b00DS after 14 days in presence of middlebrook 7H9/BSA medium by eleven fold serial dilution method; type: functional; details: 336 h
[12] = system: Mycobacterium tuberculosis; experiment: Antitubercular activity against serine beta-lactamase producing Mycobacterium tuberculosis H37Rv after 14 days in presence of GAST/Fe medium by eleven fold serial dilution method; type: functional; details: 336 h

Structure (SMILES) | LCK [1] | MIC99 [2] [µg/mL] | Activity [3] | MBC [4] [µg/mL] | MIC [4] [µg/mL] | Activity [5] [log10CFU/ml] | MIC [6] [µg/mL] | MIC [7] [µg/mL] | MIC [8] [µg/mL] | MIC [9] [µg/mL] | MIC [10] [µg/mL] | MIC [11] [µg/mL] | MIC99 [12] [µg/mL]
C[C@@H](NC(=O)N1C(=O)C[C@@H]1Sc1c(F)c(F)c(F)c(F)c1F)c1ccccc1 | <3 | > 100 | Active | 12.5 (≈ 30 µM) | 12.5 (≈ 30 µM) | 1 | – | – | – | – | – | – | –
O=C1CC(Sc2cccc(C(F)(F)F)c2)N1 (racemic) | – | 25 | – | 1.5 (≈ 6.07 µM) | 1.5 (≈ 6.07 µM) | – | 12.5 | 12.5 | 0.78 | 12.5 | 25 | – | –
O=C1CC(Sc2ccc(C(F)(F)F)cc2)N1C(=O)NCc1ccccc1 (racemic) | – | 12.5 | – | – | 1.6 (≈ 4.21 µM) | – | 25 | 25 | 0.78 | 1.5 | 25 | 25 | –
O=C1CC(Sc2ccc(F)cc2Cl)N1C(=O)NCc1ccccc1 (racemic) | – | 37.5 | – | 12.5 (≈ 34.3 µM) | – | – | 12.5 | 18.8 | 0.78 | 1.5 | 25 | – | 0.3
O=C1CC(Sc2c(F)c(F)c(F)c(F)c2F)N1C(=O)NCc1ccccc1 (racemic) | <3 | 12.5 | Active | 6.2 (≈ 15.4 µM) | – | – | 25 | 25 | 0.78 | 1.5 | 6.25 | – | –
C[C@@H](NC(=O)N1C(=O)C[C@H]1Sc1c(F)c(F)c(F)c(F)c1F)c1ccccc1 | <3 | > 100 | Active | 3.1 (≈ 7.45 µM) | 3.1 (≈ 7.45 µM) | 1 | – | – | – | – | – | – | 0.3
